“And” between values parts separate entries of the source, which are not always exact repeats. Equal values may be shown once. Inconclusive results and toxic doses are left out. Cut-off read from the data, not from the text of the source: active = T/C of 150% or more; inactive = T/C below 125%.
Test system: L1210 leukemia ip in BDF1 mice, survival T/C
Experiment: NCI In Vivo Anticancer Drug Screen. Data for tumor model L1210 Leukemia (intraperitoneal) in B6D2F1 (BDF1) mice
Details: endpoint: mean survival time, higher = longer survival
Summary of the method: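 Transplanted-tumor mice were given test agent; controls received vehicle only. Survival readings from the two groups were divided (treated over control).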

[1] = dose: 100.0 mg/kg/injection, schedule: Q04DX003 (ip), vehicle: Klucel (hydroxypropylcellulose) (HPC)
[2] = dose: 200.0 mg/kg/injection, schedule: Q04DX003 (ip), vehicle: Klucel (hydroxypropylcellulose) (HPC)
[3] = dose: 400.0 mg/kg/injection, schedule: Q04DX003 (ip), vehicle: Klucel (hydroxypropylcellulose) (HPC)
[4] = dose: 100.0 mg/kg/injection, schedule: Q01DX009 (ip), vehicle: Klucel (hydroxypropylcellulose) (HPC)
[5] = dose: 200.0 mg/kg/injection, schedule: Q01DX009 (ip), vehicle: Klucel (hydroxypropylcellulose) (HPC)
[6] = dose: 400.0 mg/kg/injection, schedule: Q01DX009 (ip), vehicle: Klucel (hydroxypropylcellulose) (HPC)
[7] = dose: 50.0 mg/kg/injection, schedule: Q01DX009 (ip), vehicle: saline with Tween-80
[8] = dose: 100.0 mg/kg/injection, schedule: Q01DX009 (ip), vehicle: saline with Tween-80
[9] = dose: 50.0 mg/kg/injection, schedule: Q01DX009 (ip), vehicle: Klucel (hydroxypropylcellulose) (HPC)
[10] = dose: 100.0 mg/kg/injection, schedule: Q01DX009 (ip), vehicle: saline
[11] = dose: 100.0 mg/kg/injection, schedule: Q04DX002 (ip), vehicle: saline
[12] = dose: 200.0 mg/kg/injection, schedule: Q04DX002 (ip), vehicle: saline
[13] = dose: 25.0 mg/kg/injection, schedule: Q01DX009 (ip), vehicle: saline with Tween-80
[14] = dose: 100.0 mg/kg/injection, schedule: Q04DX003 (ip), vehicle: saline with Tween-80
[15] = dose: 200.0 mg/kg/injection, schedule: Q04DX003 (ip), vehicle: saline with Tween-80
[16] = dose: 100.0 mg/kg/injection, schedule: Q01DX001 (ip), vehicle: saline with Tween-80
[17] = dose: 50.0 mg/kg/injection, schedule: Q04DX002 (ip), vehicle: saline

Measured: T/C

C/C(=C\COc1ccccc1)CCC1OC1(C)C (stereo not drawn)
inactive: dose: 100.0 mg/kg/injection, schedule: Q04DX002 (ip), vehicle: saline with Tween-80 100 % of control | dose: 200.0 mg/kg/injection, schedule: Q04DX002 (ip), vehicle: saline with Tween-80 93 % of control | dose: 400.0 mg/kg/injection, schedule: Q04DX002 (ip), vehicle: saline with Tween-80 104 % of control

COc1ccc(NC(=O)Oc2ccc(-c3ccccc3)cc2Br)cc1
inactive: [1] 96 % of control | [2] 96 % of control | [3] 92 % of control

CC1(C)N=C(N)N=C(N)N1c1ccc(OCC(=O)Nc2ccccc2)c(Cl)c1
inactive: [4] 102 % of control | [1] 97 % of control | [5] 94 % of control | [2] 90 % of control | [6] 93 % of control | [3] 92 % of control

O=C(Nc1cccc(Cl)c1)NS(=O)(=O)c1ccccc1
inactive: [4] 97 % of control | [5] 105 % of control | [6] 106 % of control

CCC/C(=N\NC(=O)c1ccc(OC)cc1)c1ccccc1
inactive: [7] 94 % of control | [8] 102 % of control | dose: 200.0 mg/kg/injection, schedule: Q01DX009 (ip), vehicle: saline with Tween-80 94 % of control

Cc1ccc2c(n1)Nc1nc(N)[nH]c(=O)c1S2
inactive: dose: 12.5 mg/kg/injection, schedule: Q04DX003 (ip), vehicle: carboxymethylcellulose (CMC) 97 % of control | dose: 25.0 mg/kg/injection, schedule: Q04DX003 (ip), vehicle: carboxymethylcellulose (CMC) 97 % of control

CC1([N+](=O)[O-])COP(=O)(N2CC2)OC1 (stereo not drawn)
inactive: dose: 62.5 mg/kg/injection, schedule: Q01DX Z (ip), vehicle: carboxymethylcellulose (CMC) 87 % of control | dose: 125.0 mg/kg/injection, schedule: Q01DX Z (ip), vehicle: carboxymethylcellulose (CMC) 90 % of control

O=C1NC(c2ccc3ccccc3n2)Nc2ccccc21 (stereo not drawn)
inactive: [9] 92 % of control | [4] 93 % of control | dose: 150.0 mg/kg/injection, schedule: Q01DX009 (ip), vehicle: Klucel (hydroxypropylcellulose) (HPC) 90 % of control

CCOC(=O)C1C(=O)C(C(C(=O)OC2CC(C)CCC2C(C)C)N(CCCl)CCCl)C(=O)C(C(=O)OCC)C1c1ccc(O)cc1 (stereo not drawn)
inactive: [9] 104 % of control | [4] 104 % of control | [5] 101 % of control

Cc1ccc(-n2nnc3ccccc3c2=O)cc1C
inactive: [10] 101 % of control | dose: 100.0 mg/kg/injection, schedule: Q04DX003 (ip), vehicle: saline 92 % of control | dose: 200.0 mg/kg/injection, schedule: Q01DX009 (ip), vehicle: saline 98 % of control | dose: 200.0 mg/kg/injection, schedule: Q04DX003 (ip), vehicle: saline 108 % of control | dose: 400.0 mg/kg/injection, schedule: Q01DX009 (ip), vehicle: saline 104 % of control | dose: 400.0 mg/kg/injection, schedule: Q04DX003 (ip), vehicle: saline 93 % of control

NP(=S)(Oc1ccc(Cl)cc1)Oc1ccc(Cl)cc1
inactive: dose: 6.25 mg/kg/injection, schedule: Q01DX009 (ip), vehicle: gum acacia 103 % of control | dose: 12.5 mg/kg/injection, schedule: Q01DX009 (ip), vehicle: gum acacia 110 % of control | dose: 12.5 mg/kg/injection, schedule: Q04DX002 (ip), vehicle: gum acacia 87 % of control | dose: 25.0 mg/kg/injection, schedule: Q01DX009 (ip), vehicle: gum acacia 100 % of control | dose: 25.0 mg/kg/injection, schedule: Q04DX002 (ip), vehicle: gum acacia 87 % of control | [11] 93 % of control | [12] 101 % of control | dose: 400.0 mg/kg/injection, schedule: Q04DX002 (ip), vehicle: saline 96 % of control

CC1(C)N=C(N)N=C(N)N1c1ccc(OCCCOc2ccccc2)c(Cl)c1
inactive: [9] 98 % of control | [4] 102 % of control | [1] 92 % of control | [2] 91 % of control

COc1ccc(Nc2ccccc2C(=O)NN)cc1
inactive: [9] 102 % of control | [4] 96 % of control | [1] 94 % of control | [2] 105 % of control

CC(C1CCC/C(=N\NC(N)=O)C1)[N+](=O)[O-] (stereo not drawn)
inactive: [13] 95 % of control | [7] 104 % of control | [8] 89 % of control | [14] 90 % of control | [15] 98 % of control

COc1cc(NC(=O)Nc2cc(Cl)ccc2C)c(OC)cc1Cl
inactive: dose: 100.0 mg/kg/injection, schedule: Q01DX001 (ip), vehicle: Klucel (hydroxypropylcellulose) (HPC) 97 % of control | [4] 94 % of control and 88 % of control | dose: 100.0 mg/kg/injection, schedule: Q04DX002 (ip), vehicle: Klucel (hydroxypropylcellulose) (HPC) 104 % of control | [1] 103 % of control | dose: 200.0 mg/kg/injection, schedule: Q01DX001 (ip), vehicle: Klucel (hydroxypropylcellulose) (HPC) 103 % of control | [5] 87 % of control and 90 % of control | dose: 200.0 mg/kg/injection, schedule: Q04DX002 (ip), vehicle: Klucel (hydroxypropylcellulose) (HPC) 98 % of control | [2] 101 % of control | dose: 400.0 mg/kg/injection, schedule: Q01DX001 (ip), vehicle: Klucel (hydroxypropylcellulose) (HPC) 95 % of control | [6] 88 % of control | dose: 400.0 mg/kg/injection, schedule: Q04DX002 (ip), vehicle: Klucel (hydroxypropylcellulose) (HPC) 89 % of control | [3] 92 % of control

Cc1ccc(Nc2nc(N)nc(N)c2N)c(C)c1
inactive: dose: 12.0 mg/kg/injection, schedule: Q01DX Z (ip), vehicle: saline 110 % of control

CCCCCCCNCCC#N
inactive: [16] 95 % of control | dose: 200.0 mg/kg/injection, schedule: Q01DX001 (ip), vehicle: saline with Tween-80 89 % of control

COC(=O)C1CNN=C1C(=O)N1Cc2cc3ccccc3nc2C1 (stereo not drawn)
inactive: dose: 10.0 mg/kg/injection, schedule: Q04DX003 (ip), vehicle: saline 94 % of control | dose: 20.0 mg/kg/injection, schedule: Q04DX003 (ip), vehicle: saline 97 % of control | dose: 40.0 mg/kg/injection, schedule: Q04DX003 (ip), vehicle: saline 91 % of control | dose: 80.0 mg/kg/injection, schedule: Q04DX003 (ip), vehicle: saline 97 % of control | dose: 160.0 mg/kg/injection, schedule: Q04DX003 (ip), vehicle: saline 99 % of control

N=c1c2[nH]cnc2ncn1O
inactive: dose: 100.0 mg/kg/injection, schedule: Q01DX001 (ip), vehicle: carboxymethylcellulose (CMC) 89 % of control | dose: 200.0 mg/kg/injection, schedule: Q01DX001 (ip), vehicle: carboxymethylcellulose (CMC) 94 % of control | dose: 400.0 mg/kg/injection, schedule: Q01DX001 (ip), vehicle: carboxymethylcellulose (CMC) 100 % of control

COc1cc(OC)c(OC)cc1CNC1CCCCCCC1
inactive: dose: 25.0 mg/kg/injection, schedule: Q04DX002 (ip), vehicle: saline 102 % of control | [17] 91 % of control | [11] 105 % of control and 115 % of control

OCCCC1CCCCN1 (stereo not drawn)
inactive: dose: 25.0 mg/kg/injection, schedule: Q01DX009 (ip), vehicle: saline 100 % of control | dose: 50.0 mg/kg/injection, schedule: Q01DX009 (ip), vehicle: saline 96 % of control | [10] 88 % of control | dose: 100.0 mg/kg/injection, schedule: Q04DX003 (ip), vehicle: acetone 103 % of control

O=[N+]([O-])c1ccc([N+](=O)[O-])c(Cl)c1
inactive: [9] 101 % of control | [4] 95 % of control | [14] 97 % of control | [15] 86 % of control

O=C(O)CCCC(CC(=O)O)c1ccccc1 (stereo not drawn)
inactive: [17] 108 % of control | [11] 104 % of control | [12] 101 % of control

Cc1ccc(S(=O)(=O)OCC(O)C(OC(=O)c2ccccc2)C(OC(=O)c2ccccc2)C(CO)OC(=O)c2ccccc2)cc1 (stereo not drawn)
inactive: dose: 25.0 mg/kg/injection, schedule: Q01DX001 (ip), vehicle: saline with Tween-80 92 % of control | dose: 50.0 mg/kg/injection, schedule: Q01DX001 (ip), vehicle: saline with Tween-80 95 % of control | [16] 88 % of control and 89 % of control

COC(=O)N/N=C/C=C/c1ccccc1
inactive: [13] 101 % of control | [7] 105 % of control | [8] 97 % of control

— PubChem BioAssay AID248 (DTP/NCI, 2004)
